Experimental data published in patent US20180263945A1, “PYRUVATE COMPOUNDS FOR TREATMENT OF PERIPHERAL NEUROPATHY” (Research Institute at Nationwide Children's Hospital, priority 2014, published 2018).

B1: neurotrophin-3 (protein, UniProt P20783 139-257, looked up)
Neurotrophin-3: YAEHKSHRGEYSVCDSESLWVTDKSSAIDIRGHQVTVLGEIKTGNSPVKQYFYETRCKEARPVKNGCRGIDDKHWNSQCKTSQTYVRALTSENNKLVGWRWIRIDTSCVCALSRKIGRT
modifications: Neurotrophin-3
notes: neurotrophic agent neurotrophin-3

Columns and labels:
[1] = test system: TrJ mice; assay: Motor function: grip strength test and four-limb wire hanging strength test (Example 2); type: in vivo; details: endpoint, 4 months post injection; P<0.05
Method: Mice were tested for motor functions at the endpoint (4 months post injection) by performing grip strength test and four-limb wire hanging strength test. […] (Error bars represent standard error of the mean. Student t test was performed).
Wire Hang test: The mice were allowed to grasp by their four paws a 2-mm diameter metal wire maintained horizontally 35 cm above a thick layer of soft bedding (device made by the NCH Bioengineering Department according to the specifications of Klein et al.). […] The length of time until the mice fell from the wire was recorded. After each fall, the mice were allowed to recover for 1 minute. Each session consisted of three trials from which the scores were averaged.
Motor function testing Tr^J mice were tested for baseline motor function within 1 week prior to receiving i.m. injection of ssAAV1.CMV.NT-3 or PBS. Motor function tests included bilateral simultaneous hindlimb grip power and that of the left hind paw using a grip strength meter (Chatillon Digital Meter; Model DFIS-2; Columbus Instruments, Columbus, Ohio). Bilateral or unilateral grip strength was assessed by allowing the animals to grasp a platform followed by pulling the animal until it releases the platform; the force measurements were recorded in four separate trials. Measurements were performed on the same day and time of each week. […]

[2] = test system: Sciatic Nerves from Tr^J Mice; assay: g ratio of the myelinated fibers, sciatic nerve crush/regeneration study (Example 1); type: in vivo; details: for percent of fibers with G ratio less than 0.8: SP 4% in drinking water, 20 weeks; for percent of fibers within a G ratio range of 0.4-0.7: pyruvate group, control Tr^J 6.5%
Method: (§1) Six weeks old Tr^J mice (pmp22^Tr-J) were used in this study. A total of 8 Tr^J mice (mouse model for demyelinating CMT) were studied. Five received SP, 4% in drinking water, 3 mice left untreated to serve as control. All treatment protocols and animal surgeries were conducted under the protocols approved by the Nationwide Children's Hospital and The Ohio State University Animal Care and Use Committee. Animals were acclimatized by placing on 2.5% apple juice first, which was increased to 20% a week later. In one group (pyruvate group; n=5) sodium pyruvate (Sigma) was added to apple juice in 2.5% concentration and a week later increased to 4%. The pyruvate group remained 4% sodium pyruvate in 20% apple juice drinking water throughout the duration of the study. The control group (n=3) continued on 20% apple juice only. Drinking solutions were freshly prepared every other day.
Both groups underwent sciatic nerve crush procedure one week after starting on sodium pyruvate in apple juice or apple juice alone, providing the results shown in FIGS. 1 and 2. Under isoflurane anesthesia left sciatic nerves were exposed and crushed with a fine forceps at a level 5 mm distal to the sciatic notch to generate a regeneration paradigm as previously described. Sahenk et al., Exp Neurol 224, 495-506 (2010). The crush site was marked by a 10-0 nylon suture tie passed through the epineurium. Mice were then killed quickly by an over-dosage of xylazine/ketamine anesthesia and the sciatic nerves from crushed and intact sites were removed under a dissecting microscope. Approximately 2 mm in length tissue blocks immediately distal to the crush site and the subsequent three segments, all marked for proximo-distal orientation as well as the mid sciatic segments from the contralateral uncrushed nerves were processed for plastic embedding for light microscope thick sections and electron microscopy using standard methods established by the inventors.
The g ratio refers to the ratio of axonal diameter/fiber diameter and lower g ratios represent axons with thicker myelin. Beuche, W., and Friede, R. L., Acta Neuropathol 66, 29-36 (1985); Friede, R. L., and Beuche, W., J Neurol Neurosurg Psychiatry 48, 749-756 (1985). For each animal, measurements from all fibers in 3 randomly selected representative unit areas were included and the g ratio distribution histograms were generated as percent of total fibers analyzed as previously described. Measurements from regenerating and intact nerves were obtained in each group. One way ANOVA was used to determine statistical analysis.

[3] = test system: TrJ mice; assay: Nerve conduction studies, AAV1.NT-3 and pyruvate combinatorial therapy (Example 2); type: in vivo; details: 4 months of treatment, 4% SP in drinking water; control group decreased (P<0.05)
Method: FIG. 4 provides a bar graph showing the results of nerve conduction studies that were performed at baseline and endpoint following 4 months of treatment duration. […] (Error bars represent standard error of the mean. Student t test was performed).
Using the methods described below, nerve conduction studies were performed at the baseline and the endpoint, 4 months post-AAV1.NT-3 injection. During this period TrJ mice were given ad libitum access to drinking water containing 4% SP.
(§2) Nerve Conduction Studies: Sciatic motor nerve conduction studies were performed on mice under isoflurane anesthesia using a portable electrodiagnostic system (Synergy N2 EMG and nerve conduction study machine, Natus, Middleton, Wis.) as previously described. Yalvac et al., Mol Ther. 22(7):1353-63 (2014). Distance for electrode placement was measured using a compass with a needle edge and a millimeter-graduated tape measure. The sciatic motor nerve conduction responses were recorded using two fine ring electrodes (Alpine Biomed, Skovlunde, Denmark) used as the active (E1) and reference (E2) electrodes. The active recording electrode was placed over the mid portion of the gastrocnemius muscle and the reference electrode over the tendon. […] The parameters measured included compound muscle action potential (CMAP) amplitude, distal latency, and conduction velocity.

[4] = test system: Tr^J mice; assay: Functional studies: hind limb grip strength, wire hanging test (Example 1); type: in vivo; details: at 16 weeks of treatment
Method: (§3) Additional studies were designed to assess the efficacy of pyruvate treatment using a quantitative test that has functional significance. Six Tr^J mice received SP in their drinking water and the sciatic nerve conduction studies were carried out at baseline and 16 weeks of SP supplementation. Among the parameters obtained from these studies CMAP is a direct measure of the size of the motor unit. Results were compared to age-matched Tr^J-control cohort. Functional studies (hind limb grip strength, wire hanging test and rotorod) were done at baseline and at 7 to 10 day intervals.
Wire Hang test: The mice were allowed to grasp by their four paws a 2-mm diameter metal wire maintained horizontally 35 cm above a thick layer of soft bedding (device made by the NCH Bioengineering Department according to the specifications of Klein et al.). Klein et al. J Neurosci Methods, 203:292-297 (2012). The length of time until the mice fell from the wire was recorded. After each fall, the mice were allowed to recover for 1 minute. […]
Motor function testing Tr^J mice were tested for baseline motor function within 1 week prior to receiving i.m. injection of ssAAV1.CMV.NT-3 or PBS. […] Bilateral or unilateral grip strength was assessed by allowing the animals to grasp a platform followed by pulling the animal until it releases the platform; the force measurements were recorded in four separate trials. […]

[5] = test system: Sciatic Nerves from Tr^J Mice; assay: Histopathology and myelinated fiber density, sciatic nerves at 16 weeks of treatment (Example 2); type: in vivo
[6] = test system: Tr^J mice; assay: Sciatic nerve conduction studies (Example 1); type: in vivo
Excerpt: as §3, with “Six Tr^J mice received SP in their drinking water and the sciatic nerve conduction studies were carried out at baseline and 16 weeks of SP supplementation.” left out
as §2

[7] = test system: Sciatic Nerves from Tr^J Mice; assay: Myelinated fiber density determinations, sciatic nerve crush/regeneration study (Example 1); type: in vivo; details: 4% sodium pyruvate in drinking water, twenty weeks after crush
Method: as §1
Both groups underwent sciatic nerve crush procedure one week after starting on sodium pyruvate in apple juice or apple juice alone, providing the results shown in FIGS. 1 and 2. […]
Quantitative analysis at the light microscopic level was performed on 1 μm-thick toluidine blue stained cross sections from regenerating and intact uncrushed sciatic nerves from pyruvate and control groups. […] Unpaired t-test was calculated using graphPad Prism 6 program for comparison of the two sets of data.

[8] = test system: CMT1A patients; details: previous studies of the inventors; cited from earlier work
[9] = test system: trembler^J (Tr^J) mouse; details: previous studies of the inventors; cited from earlier work

Molecule	four-limb wire hanging strength test vs control group [1]	grip strength test vs control group [1]	G ratios (axon diameter/fiber diameter) in comparison to the control Tr^J ([2]; intact and regenerating sciatic nerves, lower g ratio = thicker myelin)	percent of fibers with G ratio less than 0.8 ([2]; intact nerves, control 42%)	percent of fibers within a G ratio range of 0.4-0.7 ([2]; intact nerves)	percent of fibers with G ratio less than 0.8 ([2]; regenerating nerves, control 17%) [%]	percent of fibers within a G ratio range of 0.4-0.7 ([2]; regenerating nerves) [%]	improving myelination during regeneration, more than that of the control group ([2]; regenerating nerves, pyruvate supplementation)	CMAP amplitudes at the endpoint compared to the baseline [3]	hind limb grip strength compared to the untreated Tr^J controls [4]	wire hanging test (WHT) compared to the untreated Tr^J controls [4]	myelinated fibers and myelin thickness in toluidine blue stained sciatic nerve sections vs untreated ([5]; TrJ mice, 16 weeks of treatment)	Myelinated Fiber Density, mean ± SEM ([5]; sciatic nerves, Tr^J mice, treatment duration 16 wks) [number/mm2]	Trends for improvements in conduction velocities and distal latencies ([6]; Tr^J mice, pyruvate supplementation)	CMAP amplitude of the Tr^J sciatic nerves, baseline vs endpoint ([6]; pyruvate supplementation for 24 weeks, untreated controls deteriorated further)	Myelinated Fiber Density, Intact, mean ± SEM ([7]; intact (uncrushed) sciatic nerve, p = 0.0271 vs control) [number/mm2]	Myelinated Fiber Density, Regenerating, mean ± SEM ([7]; regenerating (crushed) sciatic nerve, p = 0.0075 vs control) [number/mm2]	efficacy in CMT1A patients [8]	effect on trembler^J (Tr^J) mouse [9]
CC(=O)C(=O)[O-].[Na+] [pyruvate, sodium pyruvate]	performed better than control group	performed better than control group	significantly reduced	about 53%	about 29%	43	22	about 27%	preserved their CMAPs	significantly better	significantly better	notable increase in myelinated fibers and increased myelin thickness	15000.2 ± 878.4	not significant	protected CMAP amplitude	16583 ± 749	18259 ± 1051	–	–
B1	–	–	–	–	–	–	–	–	–	–	–	–	–	–	–	–	–	showed efficacy	improved
